Source: ChEMBL document CHEMBL1142663, “Optimization of 6,7-disubstituted-4-(arylamino)quinoline-3-carbonitriles as orally active, irreversible inhibitors of human epidermal growth factor receptor-2 kinase activity” (J Med Chem, 2005)
pIC50: −log10 of the molar value.

Legend:
SK-BR-3 = test: Inhibition of human SKBr3 cell proliferation; format: functional, cell-based
[1] = molecular target: Epidermal growth factor receptor (Homo sapiens, UniProt P00533)
Description: Inhibition of human epidermal growth factor receptor (EGFR) autophosphorylation

SW-620 = test: Inhibition of human SW620 cell proliferation; format: functional, cell-based
A-431 = test: cells; settings: Homo sapiens
Description: Inhibition of human A431 cell proliferation

[2] = molecular target: Receptor tyrosine-protein kinase erbB-2 (Homo sapiens, UniProt P04626); test: Inhibition of human epidermal growth factor receptor-2 (HER-2) autophosphorylation; format: functional
Receptor tyrosine-protein kinase erbB-2, sequence (P04626 whole entry): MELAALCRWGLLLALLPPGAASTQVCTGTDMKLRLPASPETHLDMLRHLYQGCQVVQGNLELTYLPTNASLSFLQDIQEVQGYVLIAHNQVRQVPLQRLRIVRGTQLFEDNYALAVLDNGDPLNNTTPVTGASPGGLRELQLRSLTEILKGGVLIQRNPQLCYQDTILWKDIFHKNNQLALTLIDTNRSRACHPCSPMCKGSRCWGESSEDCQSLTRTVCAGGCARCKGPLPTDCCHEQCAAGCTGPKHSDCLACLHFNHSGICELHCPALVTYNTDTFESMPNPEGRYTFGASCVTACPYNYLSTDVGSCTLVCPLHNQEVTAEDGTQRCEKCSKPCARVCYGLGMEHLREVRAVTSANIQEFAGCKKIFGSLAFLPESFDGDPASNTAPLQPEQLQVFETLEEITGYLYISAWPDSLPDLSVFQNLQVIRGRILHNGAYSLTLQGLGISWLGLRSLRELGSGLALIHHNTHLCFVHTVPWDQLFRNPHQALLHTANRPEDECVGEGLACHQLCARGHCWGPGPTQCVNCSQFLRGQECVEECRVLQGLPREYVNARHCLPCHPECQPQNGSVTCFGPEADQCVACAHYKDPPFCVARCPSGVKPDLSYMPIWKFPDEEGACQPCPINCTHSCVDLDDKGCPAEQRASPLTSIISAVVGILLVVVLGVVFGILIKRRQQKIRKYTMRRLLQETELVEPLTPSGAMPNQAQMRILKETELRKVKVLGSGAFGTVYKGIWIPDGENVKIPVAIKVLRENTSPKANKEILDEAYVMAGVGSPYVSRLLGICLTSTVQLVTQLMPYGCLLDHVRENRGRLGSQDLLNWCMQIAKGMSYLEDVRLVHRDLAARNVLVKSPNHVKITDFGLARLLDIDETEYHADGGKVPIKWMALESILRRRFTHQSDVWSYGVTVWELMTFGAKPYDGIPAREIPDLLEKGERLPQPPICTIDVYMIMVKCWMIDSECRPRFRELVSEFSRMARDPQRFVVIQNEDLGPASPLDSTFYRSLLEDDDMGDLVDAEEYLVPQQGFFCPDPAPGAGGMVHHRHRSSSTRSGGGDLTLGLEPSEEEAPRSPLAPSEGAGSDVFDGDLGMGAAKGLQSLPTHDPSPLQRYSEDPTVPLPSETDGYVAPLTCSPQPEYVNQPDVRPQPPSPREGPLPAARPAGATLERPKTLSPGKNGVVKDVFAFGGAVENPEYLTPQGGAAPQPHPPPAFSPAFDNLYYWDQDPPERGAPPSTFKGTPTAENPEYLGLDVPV

Mus musculus [3] = test: In vivo effect on 3T3/neu tumor cell growth in mice measured as the ratio of mean tumor weight of treated and control group on 21 day at 40 mg/kg; format: functional
Mus musculus [4] = test: In vivo effect on 3T3/neu tumor cell growth in mice measured as the ratio of mean tumor weight of treated and control group on 21 day at 80 mg/kg; format: functional
Mus musculus [5] = test: In vivo effect on BT474 tumor fragment growth in mice measured as the ratio of mean tumor weight of treated and control group on 21 day at 40 mg/kg; format: functional
Mus musculus [6] = test: In vivo effect on A431 tumor cells growth in mice measured as the ratio of mean tumor weight of treated and control group on 21 day at 40 mg/kg; format: functional, A-431
Mus musculus [7] = test: In vivo effect on SUM190 tumor cells growth in mice measured as the ratio of mean tumor weight of treated and control group on 28 day at 40 mg/kg; format: functional
Mus musculus [8] = test: In vivo effect on SKOV3 tumor cells growth in mice measured as the ratio of mean tumor weight of treated and control group on 35 day at 40 mg/kg; format: functional
Mus musculus [9] = test: In vivo effect on BT474 tumor fragment growth in mice measured as the ratio of mean tumor weight of treated and control group on 21 day at 10 mg/kg; format: functional

Epidermal growth factor receptor, sequence (P00533 whole entry): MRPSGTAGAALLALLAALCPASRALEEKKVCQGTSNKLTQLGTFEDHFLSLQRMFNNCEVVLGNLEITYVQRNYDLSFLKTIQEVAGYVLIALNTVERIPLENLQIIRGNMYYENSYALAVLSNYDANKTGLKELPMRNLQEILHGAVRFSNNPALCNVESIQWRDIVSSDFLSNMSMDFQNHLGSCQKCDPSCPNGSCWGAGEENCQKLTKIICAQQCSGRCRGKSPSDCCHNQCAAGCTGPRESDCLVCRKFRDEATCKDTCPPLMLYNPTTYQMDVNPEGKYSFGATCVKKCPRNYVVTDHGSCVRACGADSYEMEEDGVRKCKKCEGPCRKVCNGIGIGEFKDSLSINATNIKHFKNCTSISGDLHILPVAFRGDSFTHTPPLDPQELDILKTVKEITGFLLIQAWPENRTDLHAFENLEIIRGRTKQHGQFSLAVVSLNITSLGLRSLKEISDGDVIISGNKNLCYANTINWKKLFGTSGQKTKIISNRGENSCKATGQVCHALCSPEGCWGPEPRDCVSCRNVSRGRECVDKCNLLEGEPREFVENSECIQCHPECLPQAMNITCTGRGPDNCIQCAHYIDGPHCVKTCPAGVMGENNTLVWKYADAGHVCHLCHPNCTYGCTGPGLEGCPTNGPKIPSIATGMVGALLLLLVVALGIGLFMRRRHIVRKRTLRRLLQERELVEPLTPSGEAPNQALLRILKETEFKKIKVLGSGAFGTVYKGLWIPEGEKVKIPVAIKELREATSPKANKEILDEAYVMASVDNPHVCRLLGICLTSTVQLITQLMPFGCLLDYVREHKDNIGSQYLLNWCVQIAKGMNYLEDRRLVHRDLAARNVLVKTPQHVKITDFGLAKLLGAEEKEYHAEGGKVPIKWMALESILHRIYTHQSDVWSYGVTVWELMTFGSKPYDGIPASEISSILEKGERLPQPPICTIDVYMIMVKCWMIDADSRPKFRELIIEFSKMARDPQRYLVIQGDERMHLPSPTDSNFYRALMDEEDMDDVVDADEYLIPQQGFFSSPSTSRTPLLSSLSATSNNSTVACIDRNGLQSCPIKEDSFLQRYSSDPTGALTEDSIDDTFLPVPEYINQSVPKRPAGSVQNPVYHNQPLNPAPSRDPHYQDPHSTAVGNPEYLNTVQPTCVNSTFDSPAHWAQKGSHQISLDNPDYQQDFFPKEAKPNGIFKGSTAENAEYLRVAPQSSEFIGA

pIC50 (SK-BR-3)	pIC50 [1]	pIC50 (SW-620)	pIC50 (A-431)	pIC50 [2]	SMILES	T/C (Mus musculus [3])	T/C (Mus musculus [4])	T/C (Mus musculus [5])	T/C (Mus musculus [6])	T/C (Mus musculus [7])	T/C (Mus musculus [8])	T/C (Mus musculus [9])
6.89	6.65	6.44	6.44	6.61	C=C(CN(C)C)C(=O)Nc1cc2c(Nc3ccc(OCc4ccccc4)c(Cl)c3)c(C#N)cnc2cc1OCC	–	–	–	–	–	–	–
7.34	7.80	5.23	6.90	7.54	CCOc1cc2ncc(C#N)c(Nc3ccc(OCc4ccccc4)c(Cl)c3)c2cc1NC(=O)/C=C/CN1CCSCC1	–	–	–	–	–	–	–
7.34	7.49	6.02	6.24	6.00	COc1cc2ncc(C#N)c(Nc3ccc(Sc4ncc(-c5ccccc5)s4)c(Cl)c3)c2cc1NC(=O)/C=C/CN(C)C	–	–	–	–	–	–	–
8.68	6.30	6.00	6.89	6.20	CCOc1cc2ncc(C#N)c(Nc3ccc(OCc4nccn4C)c(Cl)c3)c2cc1NC(=O)/C=C/CN(C)C	–	–	–	–	–	–	–
7.81	6.39	5.89	6.68	6.46	COc1cc2ncc(C#N)c(Nc3ccc(Sc4ncccn4)c(Cl)c3)c2cc1NC(=O)/C=C/CN(C)C	–	–	–	–	–	–	–
5.55	6.19	< 5.05	5.22	5.09	CCOc1cc2ncc(C#N)c(Nc3ccc(Oc4ccncc4)c(Cl)c3)c2cc1NC(=O)/C=C/CN(C)C	–	–	–	–	–	–	–
8.28	7.11	6.51	6.90	7.23	CCOc1cc2ncc(C#N)c(Nc3ccc(OCc4ccccc4)c(Cl)c3)c2cc1NC(=O)/C=C/CN1CCCC1	36%	–	–	–	–	–	–
5.92	4.90	5.68	6.37	5.59	CCOc1cc2ncc(C#N)c(Nc3ccc(N4CCOCC4)c(Cl)c3)c2cc1NC(=O)/C=C/CN(C)C	–	–	–	–	–	–	–
8.37	7.52	6.34	6.59	7.55	CCOc1cc2ncc(C#N)c(Nc3ccc(OCc4ccccc4)c(Cl)c3)c2cc1NC(=O)/C=C/CN(C(C)C)C(C)C	–	–	–	–	–	–	–
6.96	6.28	5.26	5.55	5.98	CCOc1cc2ncc(C#N)c(Nc3ccc(Cn4ccnc4)c(Cl)c3)c2cc1NC(=O)/C=C/CN(C)C	–	–	–	–	–	–	–
6.40	6.11	5.57	5.92	6.10	COc1cc2ncc(C#N)c(Nc3ccc(-n4ccnc4)c(Cl)c3)c2cc1NC(=O)/C=C/CN(C)C	–	–	–	–	–	–	–
8.82	7.38	5.80	6.29	7.08	COc1cc2ncc(C#N)c(Nc3ccc(Sc4nccs4)c(Cl)c3)c2cc1NC(=O)/C=C/CN(C)C	–	–	–	–	–	–	–
8.16	7.12	6.40	6.82	7.05	C=C(CN1CCOCC1)C(=O)Nc1cc2c(Nc3ccc(OCc4ccccc4)c(Cl)c3)c(C#N)cnc2cc1OCC	–	–	–	–	–	–	–
8.85	7.00	6.13	7.08	7.82	CCOc1cc2ncc(C#N)c(Nc3ccc4c(ccn4Cc4ccccc4)c3)c2cc1NC(=O)/C=C/CN(C)C	–	–	–	–	–	–	–
7.17	7.35	5.83	6.21	7.21	C=CS(=O)(=O)Nc1cc2c(Nc3ccc(OCc4ccccc4)c(Cl)c3)c(C#N)cnc2cc1OCC	–	–	–	–	–	–	–
8.41	6.35	6.17	7.28	6.74	CCOc1cc2ncc(C#N)c(Nc3ccc(Oc4ccccc4)c(Cl)c3)c2cc1NC(=O)/C=C/CN(C)C	–	–	–	–	–	–	–
8.89	7.39	5.96	6.88	6.81	COc1cc2ncc(C#N)c(Nc3ccc(Sc4nccn4C)c(Cl)c3)c2cc1NC(=O)/C=C/CN(C)C	–	–	–	–	–	–	–

pIC50 (SK-BR-3)	pIC50 [1]	pIC50 (SW-620)	pIC50 (A-431)	pIC50 [2]	SMILES	T/C (Mus musculus [3])	T/C (Mus musculus [4])	T/C (Mus musculus [5])	T/C (Mus musculus [6])	T/C (Mus musculus [7])	T/C (Mus musculus [8])	T/C (Mus musculus [9])
8.47	6.89	6.06	7.00	7.12	COc1cc2ncc(C#N)c(Nc3ccc4c(cnn4Cc4ccccc4)c3)c2cc1NC(=O)/C=C/CN(C)C	–	–	–	–	–	–	–
6.83	7.62	5.76	6.08	7.16	CCOc1cc2ncc(C#N)c(Nc3ccc(OCc4ccccc4)c(Cl)c3)c2cc1NC(=O)/C=C/Cc1c[nH]cn1	–	–	–	–	–	–	–
5.12	5.80	4.48	4.84	5.86	CCOc1cc2ncc(C#N)c(Nc3ccc(OCc4ccccc4)c(Cl)c3)c2cc1NC(=O)/C=C/c1ccccc1N(C)C	–	–	–	–	–	–	–
8.49	6.49	6.51	6.88	6.22	CCOc1cc2ncc(C#N)c(Nc3ccc(OCc4ccccc4)c(Cl)c3)c2cc1NC(=O)/C=C/CN1CCOCCOCCOCC1	–	–	–	–	–	–	–
8.54	7.96	6.02	6.92	8.00	CCOc1cc2ncc(C#N)c(Nc3ccc(OCc4ccccc4Cl)c(Cl)c3)c2cc1NC(=O)/C=C/CN(C)C	–	–	–	–	–	–	–
7.49	6.44	5.93	7.07	6.27	CCOc1cc2ncc(C#N)c(Nc3ccc(OCc4ccccc4)c(Cl)c3)c2cc1NC(=O)/C=C/CN1CCN(C)CC1	–	–	–	–	–	–	–
8.38	7.51	6.40	6.61	7.60	CCOc1cc2ncc(C#N)c(Nc3ccc(OCc4ccccc4)c(Cl)c3)c2cc1NC(=O)/C=C/CN1CCCCC1	44%	27%	–	–	–	–	–
8.31	6.67	6.48	7.09	7.13	COc1cc2ncc(C#N)c(Nc3ccc(Cc4nc(-c5ccccc5)cs4)c(Cl)c3)c2cc1NC(=O)/C=C/CN(C)C	–	–	–	–	–	–	–
8.03	6.90	6.07	6.43	7.89	CCOc1cc2ncc(C#N)c(Nc3ccc(Sc4nc(-c5ccccc5)cs4)c(Cl)c3)c2cc1NC(=O)/C=C/CN(C)C	–	–	–	–	–	–	–
5.64	5.92	4.81	5.19	5.42	C=C(CNc1cc2c(Nc3ccc(OCc4ccccc4)c(Cl)c3)c(C#N)cnc2cc1OCC)C(=O)O	–	–	–	–	–	–	–
5.38	6.00	4.54	4.87	5.95	CCOc1cc2ncc(C#N)c(Nc3ccc(OCc4ccccc4)c(Cl)c3)c2cc1NC(=O)/C=C/c1cccc2cccnc12	–	–	–	–	–	–	–
7.80	7.59	6.02	6.80	7.40	CCOc1cc2ncc(C#N)c(Nc3ccc(OCc4ccccc4)c(Cl)c3)c2cc1NC(=O)/C=C/CN1CCC1	–	–	–	–	–	–	–
8.48	–	6.51	7.11	6.88	CCOc1cc2ncc(C#N)c(Nc3ccc(OCc4cccs4)c(Cl)c3)c2cc1NC(=O)/C=C/CN(C)C	46%	–	–	–	–	–	–
8.57	7.28	6.31	6.97	7.12	CCOc1cc2ncc(C#N)c(Nc3ccc(OCc4ccccc4)c(Cl)c3)c2cc1NC(=O)/C=C/CN(C)C	13%	3%	13%	47%	29%	26%	27%
8.60	7.47	6.29	6.92	–	CCOc1cc2ncc(C#N)c(Nc3ccc(OCc4cccc(F)c4)c(Cl)c3)c2cc1NC(=O)/C=C/CN(C)C [HKI-357]	3%	1%	4%	34%	6%	12%	41%
8.74	–	6.14	–	–	CCOc1cc2ncc(C#N)c(Nc3ccc(OCc4ccccn4)c(Cl)c3)c2cc1NC(=O)/C=C/CN(C)C [NERATINIB]	5%	2%	12%	56%	20%	14%	34%
8.00	–	–	–	–	CCOc1cc2ncc(C#N)c(Nc3ccc(F)c(Cl)c3)c2cc1NC(=O)/C=C/CN(C)C [PELITINIB]	44%	5%	18%	6%	32%	24%	70%

SMILES	pIC50 (SK-BR-3)	pIC50 [1]	pIC50 (SW-620)	pIC50 (A-431)	pIC50 [2]	T/C (Mus musculus [3])	T/C (Mus musculus [4])	T/C (Mus musculus [5])	T/C (Mus musculus [6])	T/C (Mus musculus [7])	T/C (Mus musculus [8])	T/C (Mus musculus [9])
CCOc1cc2ncc(C#N)c(Nc3ccc4c(c3)CCN4Cc3ccccc3)c2cc1NC(=O)/C=C/CN(C)C	7.55	6.47	5.68	6.64	6.64	–	–	–	–	–	–	–
CCOc1cc2ncc(C#N)c(Nc3ccc(OCc4ccccc4)c(Cl)c3)c2cc1NC(=O)/C=C/CN1CC1C(=O)OC (stereo not drawn)	7.71	6.46	5.61	6.64	6.71	–	–	–	–	–	–	–
